We go through three substances from patent US20200208111A1, “GENOME-EDITED NK CELL AND METHODS OF MAKING AND USING” (REGENTS OF THE UNIVERSITY OF MINNESOTA, priority 2016, published 2020).

One data set concerns CISH. Kind of data set: CISH expression in NK cells after electroporation, protein lysates on Wes machine with CISH-specific antibody. The following applies: with Cas9 mRNA, compared to matched donor samples electroporated with Cas9 mRNA alone; five days after electroporation; n=3 donors. In kind it is cell-based, human. As to the method:
NK cells (3×10^6) from three donors (donors 070, 380, and 437) stimulated with aAPCs were electroporated using the optimized NEON electroporation conditions with 10 μg Cas9 mRNA and 10 μg CISH gRNA. Five days after electroporation, cells were harvested and protein lysates were run with a CISH-specific antibody on a Wes machine (Protein Simple, San Jose, Calif.) and CISH expression (area under peak) normalized to ([…] was analyzed using Compass Software (Protein Simple, Bio-Techne, Minneapolis, Minn.). Results are shown in FIG. 9.

A further data set concerns TIGIT. In words: TIGIT expression in knockout NK cells by flow cytometry. In kind it is cell-based, human. The following applies: with Cas9 mRNA, compared to matched donor samples electroporated with Cas9 mRNA alone; five days after electroporation; n=2 donors. As to the method: 3×10^6 NK cells from two donors (donors 407 and 613) stimulated with aAPCs were electroporated using the optimized NEON electroporation conditions with 10 μg Cas9 mRNA and 10 μg gRNA. Five days after electroporation, cells were harvested and stained with antibodies for CD56, CD3, TIGIT, and SYTOX Blue viability dye. Cells were gated on single cells (FSC-H vs FSC-A), CD56^+, CD3^−, SYTOX Blue^−, and TIGIT^+. TIGIT expression in knockout cells was compared to matched donor samples electroporated with Cas9 mRNA alone.

The next data set relates to PD1. In words: CRISPR/Cas9 gene editing at PD1 in primary human NK cells, Surveyor nuclease activity assay. In kind it is cell-based. The following applies: chemically modified gRNA and Cas9 mRNA; 72 hours post electroporation. As to the method: For FIGS. 1-7 (as appropriate), activity of the gRNAs was quantified by a Surveyor Digest, gel electrophoresis, and densitometry (Guschin et al., Methods Mol. Biol., 2010, 649:247-256).
Unstimulated or stimulated CD3^−CD56^+ NK cells were nucleofected using the AMAXA nucleofection system (Human Macrophage Kit, Lonza Group, Basel, Switzerland). Cells were counted and resuspended at a density of 3.0×10^6 cells in 100 μL of Resuspension buffer, and the following reagents were added to the cells and buffer prior to nucleofection: 10 μg, 15 μg, or 20 μg mRNA Cas9 (TriLink. BioTechnologies, San Diego, Calif.), and 10 μg, 20 μg, or 30 μg gRNA (TriLink BioTechnologies, San Diego, Calif.). Three days after nucleofection, cells were harvested and gRNA activity was measured as above.

For the substance “CISH gRNA: guide RNA GGGUUCCAUUACGGCCAGCG (SEQ ID NO: 14) (listed as RNA, chemistry not given here)”, in the data set on CISH, the CISH expression result was “decreased”.

For the substance “TIGIT gRNA: guide RNA GACCUGGGUCACUUGUGCCG (SEQ ID NO: 13) (listed as RNA, chemistry not given here)”, in the data set on TIGIT, the TIGIT expression entry is “decreased”.

Take “PD1 gRNA: guide RNA CCUGCUCGUGGUGACCGAAG (SEQ ID NO: 11), chemically modified (chemically modified, pattern not given here)”: in the data set on PD1, the “Gene modification of NK cells” value was “gene modification of NK cells was induced”.
